In one assay the target is T1, DHX33 protein (Mus musculus, UniProt Q80VY9).
T1 construct: purified full-length DHX33 protein; made in house; host or cells: E. coli BL-21pLysS (DE3)
T1 sequence (Q80VY9 1-698): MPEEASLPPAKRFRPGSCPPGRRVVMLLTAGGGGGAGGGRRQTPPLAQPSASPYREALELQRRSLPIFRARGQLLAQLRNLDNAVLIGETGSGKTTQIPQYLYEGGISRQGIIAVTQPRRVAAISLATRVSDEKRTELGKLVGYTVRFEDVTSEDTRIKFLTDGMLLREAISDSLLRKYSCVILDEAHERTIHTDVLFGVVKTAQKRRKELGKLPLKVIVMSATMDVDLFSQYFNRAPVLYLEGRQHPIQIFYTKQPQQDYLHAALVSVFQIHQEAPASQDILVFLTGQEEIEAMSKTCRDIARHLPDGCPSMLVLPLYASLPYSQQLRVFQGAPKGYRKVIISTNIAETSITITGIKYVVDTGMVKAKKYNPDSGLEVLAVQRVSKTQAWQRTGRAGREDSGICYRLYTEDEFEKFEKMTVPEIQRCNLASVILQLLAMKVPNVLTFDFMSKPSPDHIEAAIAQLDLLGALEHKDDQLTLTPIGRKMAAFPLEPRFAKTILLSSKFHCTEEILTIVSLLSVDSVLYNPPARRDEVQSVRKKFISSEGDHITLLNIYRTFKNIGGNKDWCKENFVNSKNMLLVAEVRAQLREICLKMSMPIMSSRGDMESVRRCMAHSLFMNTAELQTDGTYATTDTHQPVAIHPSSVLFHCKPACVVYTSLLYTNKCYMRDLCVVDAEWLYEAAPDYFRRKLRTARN
Kind of assay: Inhibition of the helicase activity of DHX33 protein in vitro. The class given is biochemical. The following applies: recombinant DHX33 protein, compound 1-1000 nM, 37° C., 60 minutes; read-out: IC50 (inhibitory effects of the compounds on the helicase activity of DHX33 protein). As for the experimental part:
Biochemistry. 2019:58 (4):250-8. RNA helicase gene (mouse DHX33 gene) was cloned into a pET32M-3C vector (between BamH I/Not I restriction sites). Afterward, the plasmid was transformed into BL-21pLysS (DE3) E. coli. 0.5 mM isopropyl 1-thio-βp-D-galactopyranoside (IPTG) was added, and the expression of the recombinant protein was induced at 16° C. for 16 hours. Cells were allowed to precipitate and were resuspended in a cell lysis buffer [50 mM Tris-HCl (pH7.2), 150 mM NaCl, 1% Triton X-100, and 50 mM imidazole supplemented with a protease inhibitor]. Thereafter, cells were subjected to ultrasonic treatment and centrifuged at a rotation speed of 13000 rpm for 25 minutes. The supernatant was incubated with the nickel-nitrilotriacetic acid beads equilibrated in Tris buffer, followed by sufficient washing. Thereafter, the purified protein was eluted with a solution of 300 mM imidazole in Tris buffer, and was then subjected to dialysis against an imidazole-free Tris buffer at 4° C. overnight.
The components involved in the reaction for testing the helicase activity were added to a 96-well opaque white plate. The method was outlined as follows. The 96-well plate was coated with neutravidin at a final concentration of 10 μg/mL (100 μl/well) overnight at 4° C. Afterwards, the neutravidin-coated plate was blocked with 100 μL of 0.1% (w/v) BSA (dissolved in normal PBS) at 22° C. for 2 hours. After washing, a DNA duplex (2.5 ng) that was resulted from the annealing of two single-stranded DNA oligonucleotides (the sequence of one single strand was biotin-labeled 5′-[…]-3′; and the sequence of the other single strand was DIG-labeled 5′-[…]-3′) [the annealing reaction was carried out in PBS (pH 7.0) containing 1M NaCl] was added, and the resulting mixture was incubated at 22° C. for 4 hours. After the addition of 90 μL of the reaction mixture, the helicase reaction was initiated [0.25 pig of purified full-length DHX33 protein, dissolved in 25 mM 4-MOPS (pH 7.0), 5 mM ATP 2 mM DTT, 3 mM MnCl2 and 100 μg/mL BSA]. The reaction was conducted at 37° C. for 60 minutes. After being washed, each well was incubated with a blocking solution [10% (w/v) BSA in 0.1 M maleic acid and 0.15 M NaCl (pH 7.5)] for 30 minutes, and was then incubated with 20 μL of antibody solution (anti-DIG-AP, Roche, in blocking buffer) for 30 minutes. After being washed with 100 μL of detection buffer [0.1 M Tris-HCl and 0.1 M NaCl (pH 9.5)], each well was added with 1 μL of chemiluminescent substrate (CSPD-0.25 mM), and the plate was incubated at 17° C. for 5 minutes. Afterwards, the plate was patted dry and incubated at 37° C. for 30 minutes. The remaining DIG-AP marker control in each well was counted for 10 minutes by a luminescence multi-well plate reader (Enspire, PerkinElmer). Higher reading indicated weaker helicase activity.
Positive control and negative controls were set for this acticity assay. Among them, one negative control group, which differed from the experimental group only in that the former was not added with ATP (other conditions were the same as the experimental group), was used for the comparison with the experimental group; another negative control group, which differed from the experimental group only in that the former was not added with DHX33 protein (other conditions were the same as the experimental group), was used for the comparison with the experimental group. The positive control group was set for the comparison with the wild-type DHX33 protein (standard substance).
Biochemistry. 2019:58 (4):250-8.
Compounds having a series of concentration (the concentrations were set at 1 nM, 5 nM, 10 nM, 20 nM, 50 nM, 100 nM, 250 nM, 500 nM, and 1000 nM) were used to conduct the helicase activity assay of […] protein in vitro. The half-maximal inhibitory concentrations of the compounds of the present disclosure on the helicase activity of […] protein were as shown in Table 1.

A further assay concerns U251-MG cells. Kind of assay: Half-maximal cell-inhibitory concentration on U251-MG cells (CCK-8). Type of assay: cell-based. The conditions noted are these: Homo sapiens, U-251, U251-MG cells (DHX33-overexpressing cancer cell strain), 48 hours, read-out: IC50 (half-maximal inhibitory concentrations of compounds on U251-MG cells). As for the experimental part: U251-MG cells were purchased from the cell bank of the Chinese Academy of Sciences. Cells were cultured in MEM medium containing 10% fetal bovine serum (FBS), 2 mM L-glutammie, streptomycmn and penicillin. The growth conditions were set as follows: a humidified cell incubator (37° C., 5% CO2). Cells were passaged every 3 days and were discarded after 10 passages.
U251-MG cells (a […]-overexpressing cancer cell strain) were seeded on a 96-well plate at 1×10^4 cells/100 μl/well. After the cells were completely attached, the compounds were added to the cell culture medium at a concentration of 5 nM, 10 nM, 25 nM, 50 nM, 100 nM, […], 500 nM, 1000 nM, 2000 nM, […] or 20 μM, and the resulting mixture was uniformly mixed with a multichannel pipette. After the cells were incubated with the compound for 48 hours, CCK-8 reagent (Yeasen Biotechnology (Shanghai) Co., Ltd.) was added to the medium in the 96-well plate in accordance with the standard procedure. After being incubated for 2 hours, the plate was read with a microplate reader (OD=450 nm). The experiment was repeated three times, the inhibition curve of the compound at different concentrations was plotted, and the half-maximal inhibitory concentration (IC50) of the compound was calculated.

Turning to `COc1ccc2nc(/C(C#N)=C/c3cc(C)n(-c4oc(C)c(C)c4C#N)c3C)[nH]c2c1` [AB24202, (E)-2-(3-(2-cyano-2-(6-methoxy-1H-benzo[d]imidazol-2-yl)vinyl)-2,5-dimethyl-1H-pyrrol-1-yl)-4,5-dimethylfuran-3-carbonitrile], the IC50 at DHX33 protein is 20 to 100 nM; with U251-MG cells, 100 to 1000 nM.

With `Cc1oc(-n2c(C)cc(/C=C(\C#N)c3nc4ccc(F)cc4[nH]3)c2C)c(C#N)c1C` [AB24205], the IC50 at DHX33 protein lay in the range of 100 to 400 nM; with U251-MG cells it was 1000 to 5000 nM.

As for `Cc1oc(-n2c(C)cc(/C=C(\C#N)c3nc4ccc(C(F)(F)F)cc4[nH]3)c2C)c(C#N)c1C` [AB24243, (E)-2-(3-(2-cyano-2-(6-(trifluoromethyl)-1H-benzo[d]imidazol-2-yl)vinyl)-2,5-dimethyl-1H-pyrrol-1-yl)-4,5-dimethylfuran-3-carbonitrile], the IC50 on DHX33 protein was 100 to 400 nM; with U251-MG cells, 1000 to 5000 nM.

For `Cc1oc(-n2c(C)cc(/C=C(\C#N)c3nc4ccncc4[nH]3)c2C)c(C#N)c1C` [AB24249], the IC50 on DHX33 protein lay within 100 to 400 nM; in the assay with U251-MG cells it was 5000 to 20000 nM.

As to `COc1cc2nc(/C(C#N)=C/c3cc(C)n(-c4oc(C)c(C)c4C#N)c3C)[nH]c2cn1` [AB24254, (E)-2-(3-(2-cyano-2-(6-methoxy-3H-imidazo[4,5-c]pyridin-2-yl)vinyl)-2,5-dimethyl-1H-pyrrol-1-yl)-4,5-dimethylfuran-3-carbonitrile], the IC50 is less than 20 nM at DHX33 protein and less than 100 nM in the assay on U251-MG cells.

Consider `Cc1cc(/C=C(\C#N)c2nc3ccccc3[nH]2)c(C)n1-c1ccncc1` [AB24259], for which the IC50 on DHX33 protein is 100 to 400 nM; with U251-MG cells, 1000 to 5000 nM.

`Cc1sc(-n2c(C)cc(/C=C(\C#N)c3nc4ccccc4[nH]3)c2C)c(C#N)c1C` [AB24264, (E)-2-(3-(2-(1-(1-H-benzo[d]imidazol-2-yl]-2-cyanovinyl])-2,5-dimethyl-1H-pyrrol-1-yl)-4,5-dimethylthiophene-3-carbonitrile]: the IC50 at DHX33 protein is 100 to 400 nM; in the assay on U251-MG cells, 1000 to 5000 nM.

`Cc1cc(C#N)c(-n2c(C)cc(/C=C(\C#N)c3nc4ccccc4[nH]3)c2C)s1` [AB24270, (E)-2-(3-(2-(1H-benzo[d]imidazol-2-yl)-2-cyanovinyl)-2,5-dimethyl-1H-pyrrol-1-yl)-5-methylthiophene-3-carbonitrile]: the IC50 lay in the range of 20 to 100 nM at DHX33 protein and 100 to 1000 nM in the assay on U251-MG cells.

As for `Cc1cc(/C=C(\C#N)c2nc3ccccc3[nH]2)c(C)n1-c1oc(-c2ccccc2)cc1C#N` [AB24283, (E)-2-(3-(2-(1H-benzo[d]imidazol-2-yl)-2-cyanovinyl)-2,5-dimethyl-1H-pyrrol-1-yl)-5-phenylfuran-3-carbonitrile], the IC50 at DHX33 protein is 100 to 400 nM; in the assay with U251-MG cells it was 1000 to 5000 nM.

Take `COc1cc2nc(/C(C#N)=C/c3cc(C)n(-c4sc(C)cc4C#N)c3C)[nH]c2cn1` [AB24288, (E)-2-(3-(2-cyano-2-(6-methoxy-3H-imidazo[4,5-c]pyridin-2-yl)vinyl)-2,5-dimethyl-1H-pyrrol-1-yl)-5-methylthiophene-3-carbonitrile]: the IC50 at DHX33 protein is less than 20 nM; in the assay with U251-MG cells, less than 100 nM.

As to `COc1ccc2c(c1)[nH]c1cc(-c3cc(C)n(-c4sc(C)cc4C#N)c3C)ccc12` [AB24350, 2-(3-(7-methoxy-9H-carbazol-2-yl)-2,5-dimethyl-1H-pyrrol-1-yl)-5-methylthiophene-3-carbonitrile], the IC50 at DHX33 protein was in the range of 100 to 400 nM.

Turning to `COc1cc2nc(/C(C#N)=C/c3cc(C)n(Cc4ccccn4)c3C)[nH]c2cn1` [AB29507, (E)-3-(2,5-dimethyl-1-(pyridin-2-ylmethyl)-1H-pyrrol-3-yl)-2-(6-methoxy-3H-imidazo[4,5-c]pyridin-2-yl)acrylonitrile], the IC50 in the assay with U251-MG cells is less than 100 nM.

Consider `COc1cc2nc(/C(C#N)=C/c3cc(C)n(Cc4cnccn4)c3C)[nH]c2cn1` [AB29508, (E)-3-(2,5-dimethyl-1-(pyrazin-2-ylmethyl)-1H-pyrrol-3-yl)-2-(6-methoxy-3H-imidazo[4,5-c]pyridin-2-yl)acrylonitrile], for which, in the assay on U251-MG cells, the IC50 was less than 100 nM.

As for `COc1ccc2nc(NC(=O)c3cc(C)n(-c4sc(C)nc4C#N)c3C)[nH]c2c1` [AB29509, 1-(4-cyano-2-methylthiazol-5-yl)-N-(6-methoxy-1H-benzo[d]imidazol-2-yl)-2,5-dimethyl-1H-pyrrole-3-carboxamide], the IC50 in the assay on U251-MG cells was in the range of 100 to 1000 nM.

As to `COc1ccc2nc(NC(=O)c3cc(C)n(-c4oc(C)c(C)c4C#N)c3C)[nH]c2c1` [AB29510, 1-(3-cyano-4,5-dimethylfuran-2-yl)-N-(6-methoxy-1H-benzo[d]imidazol-2-yl)-2,5-dimethyl-1H-pyrrole-3-carboxamide], the IC50 with U251-MG cells fell in the range of 100 to 1000 nM.

Turning to `COc1cc2nc(/C(C#N)=C/c3cc(C)n(Cc4ccncc4)c3C)[nH]c2cn1` [AB29512, (E)-3-(2,5-dimethyl-1-(pyridin-4-ylmethyl)-1H-pyrrol-3-yl)-2-(6-methoxy-3H-imidazo[4,5-c]pyridin-2-yl)acrylonitrile], the IC50 with U251-MG cells is less than 100 nM.

Turning to `COc1ccc2nc(NC(=O)c3cc(C)n(Cc4cnn(C)c4)c3C)[nH]c2c1` [AB29513, N-(6-methoxy-1H-benzo[d]imidazol-2-yl)-2,5-dimethyl-1-((1-methyl-1H-pyrazol-4-yl)methyl)-1H-pyrrole-3-carboxamide], the IC50 in the assay with U251-MG cells is 5000 to 20000 nM.

For the molecule `COC(=O)c1cc(Cl)sc1-n1c(C)cc(/C=C(\C#N)c2nc3cc(OC)ncc3[nH]2)c1C` [AR24318], the IC50 with U251-MG cells is 100 to 1000 nM.
